TGI data for twelve molecules are collected here from PubChem BioAssay (NCI).

SMILES strings stand for the structures.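 Briefly, cells in 96-well plates were exposed to five compound concentrations for 48 h, and endpoints were estimated by linear interpolation. The concentration for full growth arrest is given as TGI.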

Some test systems named below: ACHN renal; BT-549 breast; CAKI-1 renal; CCRF-CEM leukemia; COLO 205 colon; EKVX NSCLC; HCT-15 colon; HOP-92 NSCLC; HS 578T breast; MDA-MB-435; NCI-H226 lung; NCI/ADR-RES ovarian; RXF 393 renal; SF-268 CNS; SK-MEL-28 melanoma; SNB-19 CNS; SW-620 colon; TK-10 renal; NCI-H460 lung; K-562 leukemia.
What all share (assay): inhibition of tumour cell growth, NCI panel, 48 h

In the case of `C#CCNCC(=O)O`, the TGI in the experiment with ACHN renal, in the experiment with BT-549 breast, in the experiment on CAKI-1 renal, with CCRF-CEM leukemia, in the experiment on COLO 205 colon and in the experiment on EKVX NSCLC was > 100 µM throughout. In addition, the TGI with HCT-15 colon, in the experiment on HOP-92 NSCLC, with HS 578T breast, in the experiment with MDA-MB-435, with NCI-H226 lung and in the experiment with NCI/ADR-RES ovarian was > 100 µM throughout. In addition, the TGI with RXF 393 renal, with SF-268 CNS, in the experiment on SK-MEL-28 melanoma, in the experiment with SNB-19 CNS, with SW-620 colon and with TK-10 renal was > 100 µM throughout.
As for `CC1=C(C)C2(C#N)C(=O)N3C(=NC(c4ccco4)NC3c3ccco3)C2(C#N)C(c2ccco2)N1` (configuration not stated), the TGI in the experiment with ACHN renal, in the experiment with BT-549 breast, in the experiment with CAKI-1 renal, with CCRF-CEM leukemia, with COLO 205 colon and with EKVX NSCLC was > 100 µM each time. Further, the TGI with HCT-15 colon, with HOP-92 NSCLC, in the experiment on HS 578T breast, in the experiment with MDA-MB-435, in the experiment with NCI-H226 lung and with NCI-H460 lung was > 100 µM throughout. Moreover, the TGI with NCI/ADR-RES ovarian, in the experiment with RXF 393 renal, with SF-268 CNS, in the experiment with SK-MEL-28 melanoma, with SNB-19 CNS and in the experiment with SW-620 colon was > 100 µM each time. Also, the TGI in the experiment on TK-10 renal is > 100 µM.
As to `CCc1cccc(C(C)C)c1NC(=O)C(=O)Nn1c(=S)[nH]c2ccccc2c1=O`, the TGI in the experiment with ACHN renal, in the experiment on BT-549 breast, in the experiment on CAKI-1 renal, with CCRF-CEM leukemia, in the experiment with EKVX NSCLC and in the experiment with HCT-15 colon was > 100 µM in each case. The TGI in the experiment with HOP-92 NSCLC, with HS 578T breast, in the experiment on K-562 leukemia, in the experiment with MDA-MB-435, with NCI-H226 lung and in the experiment with NCI-H460 lung was > 100 µM each time. For the same molecule, the TGI in the experiment on NCI/ADR-RES ovarian, in the experiment on RXF 393 renal, in the experiment on SF-268 CNS, with SK-MEL-28 melanoma, with SW-620 colon and with TK-10 renal was > 100 µM each time.
In the case of `COc1cc2c(cc1OC)C1CN3CCCC3C(O)C1c1cc(OC)c(OC)cc1-2` (configuration not stated), the TGI in the experiment with ACHN renal, in the experiment on BT-549 breast, with CAKI-1 renal, with CCRF-CEM leukemia, in the experiment with COLO 205 colon and in the experiment with EKVX NSCLC was > 100 µM each time. Further, the TGI in the experiment on HCT-15 colon, in the experiment with HOP-92 NSCLC, in the experiment on HS 578T breast, in the experiment with K-562 leukemia, in the experiment with MDA-MB-435 and in the experiment with NCI-H460 lung was > 100 µM throughout. Further, the TGI with NCI/ADR-RES ovarian, in the experiment on RXF 393 renal, in the experiment on SF-268 CNS, with SK-MEL-28 melanoma, with SNB-19 CNS and in the experiment on SW-620 colon was > 100 µM each time. Moreover, the TGI in the experiment on TK-10 renal is > 100 µM.
`O=C1CC(=O)NC(=NN2C(=O)CSC2c2ccc(Cl)cc2)N1` (configuration not stated): the TGI with ACHN renal is > 100 µM; with BT-549 breast it was > 100 µM; with CAKI-1 renal, > 100 µM; in the experiment with CCRF-CEM leukemia it was 83.3 µM; in the experiment on COLO 205 colon, > 100 µM; in the experiment on HCT-15 colon, > 100 µM. The TGI with HOP-92 NSCLC, in the experiment with HS 578T breast, with K-562 leukemia, with MDA-MB-435, in the experiment on NCI-H226 lung and in the experiment with NCI-H460 lung was > 100 µM in each case. The TGI in the experiment with NCI/ADR-RES ovarian, in the experiment on RXF 393 renal, in the experiment on SF-268 CNS, in the experiment on SK-MEL-28 melanoma, with SW-620 colon and with TK-10 renal was > 100 µM throughout.
Take `c1ccc(C2(c3cc4ccccc4[nH]3)OCCO2)nc1`: the TGI with ACHN renal, in the experiment on BT-549 breast, in the experiment on CAKI-1 renal, with CCRF-CEM leukemia, in the experiment on COLO 205 colon and with EKVX NSCLC was > 100 µM throughout. For the same molecule, the TGI with HCT-15 colon, with HOP-92 NSCLC, with HS 578T breast, in the experiment on MDA-MB-435, in the experiment on NCI-H226 lung and in the experiment on NCI-H460 lung was > 100 µM each time. Besides, the TGI in the experiment on NCI/ADR-RES ovarian, with RXF 393 renal, with SF-268 CNS, with SK-MEL-28 melanoma, in the experiment with SNB-19 CNS and in the experiment on SW-620 colon was > 100 µM each time. For the same molecule, the TGI with TK-10 renal was > 100 µM.
Consider `CC1CCC2C(C)C(OC(=O)CCC(=O)O)OC3OC4(C)CCC1C32OO4` (configuration not stated), for which the TGI in the experiment with ACHN renal was 18.3 µM; in the experiment on BT-549 breast, > 100 µM; in the experiment on CAKI-1 renal, > 100 µM; in the experiment on CCRF-CEM leukemia it was 36 µM; in the experiment on COLO 205 colon it was 6.71 µM; in the experiment with EKVX NSCLC it was 32.7 µM. The TGI was > 100 µM in the experiment with HCT-15 colon; 31 µM with HOP-92 NSCLC; > 100 µM with HS 578T breast; 19.8 µM with K-562 leukemia; 13.6 µM with MDA-MB-435; 33.4 µM in the experiment with NCI-H460 lung. For the same molecule, the TGI was > 100 µM in the experiment on NCI/ADR-RES ovarian; > 100 µM in the experiment on SF-268 CNS; > 100 µM with SK-MEL-28 melanoma; > 100 µM in the experiment with SNB-19 CNS; > 100 µM in the experiment with SW-620 colon; 14.7 µM with TK-10 renal.
As for `COc1ccc(/C(=N/Nc2nc3ccccc3n2Cc2ccccc2)C(=O)O)cc1`, the TGI in the experiment with ACHN renal is > 100 µM; in the experiment on BT-549 breast it was > 100 µM; with CAKI-1 renal, 45.8 µM; in the experiment with CCRF-CEM leukemia, 27.8 µM; with COLO 205 colon, > 100 µM; in the experiment on EKVX NSCLC, > 100 µM. The TGI in the experiment with HCT-15 colon was > 100 µM; in the experiment with HOP-92 NSCLC, 49.1 µM; in the experiment on HS 578T breast, > 100 µM; in the experiment with K-562 leukemia, 68.5 µM; in the experiment with MDA-MB-435, > 100 µM; with NCI-H226 lung, 63 µM. Also, the TGI is 21.4 µM with NCI-H460 lung; 54 µM with NCI/ADR-RES ovarian; 63.2 µM in the experiment with SF-268 CNS; > 100 µM with SK-MEL-28 melanoma; > 100 µM with SNB-19 CNS; > 100 µM in the experiment with SW-620 colon. The TGI in the experiment on TK-10 renal was > 100 µM.
As for `c1ccc(CN2C3C4N(Cc5ccccc5)C2C2N(Cc5ccccc5)C(C(N2Cc2ccccc2)N4Cc2ccccc2)N3Cc2ccccc2)cc1`, the TGI with ACHN renal, in the experiment with BT-549 breast, with CAKI-1 renal, in the experiment on CCRF-CEM leukemia, in the experiment with COLO 205 colon and in the experiment on EKVX NSCLC was > 100 µM each time. In addition, the TGI in the experiment on HCT-15 colon, in the experiment on HOP-92 NSCLC, with HS 578T breast, with K-562 leukemia, in the experiment with MDA-MB-435 and with NCI-H226 lung was > 100 µM throughout. The TGI with NCI/ADR-RES ovarian, with RXF 393 renal, with SF-268 CNS, with SK-MEL-28 melanoma, with SW-620 colon and with TK-10 renal was > 100 µM each time.
Take `COc1ccc(C[C@@H]2OC3(C=CC(=O)CC3Sc3ccccc3)O[C@H]2Cc2ccc(OC)cc2)cc1` (some centres not stated): the TGI was determined as 2.81 µM in the experiment on ACHN renal; 1.49 µM with BT-549 breast; 4.97 µM in the experiment with CAKI-1 renal; 0.768 µM in the experiment on CCRF-CEM leukemia; 3.36 µM in the experiment with COLO 205 colon; 2.8 µM in the experiment on HCT-15 colon. In addition, the TGI in the experiment with HOP-92 NSCLC was 2.49 µM; in the experiment on HS 578T breast it was 4.19 µM; in the experiment on K-562 leukemia, > 100 µM; with MDA-MB-435, 3.98 µM; in the experiment on NCI-H226 lung, 3.33 µM; in the experiment with NCI-H460 lung, 12.1 µM. For the same molecule, the TGI in the experiment on NCI/ADR-RES ovarian amounted to 3.64 µM; in the experiment with RXF 393 renal it was 0.348 µM; in the experiment on SF-268 CNS it was 1.75 µM; with SK-MEL-28 melanoma it was 3.35 µM; in the experiment on SNB-19 CNS, 10.3 µM; in the experiment with SW-620 colon it was 0.946 µM. Further, the TGI in the experiment with TK-10 renal was determined as 3.88 µM.
Take `C=C(C)C1Cc2c(cc3c(c2O)c(=O)c2ccccc2n3C)O1` (configuration not stated): the TGI is 35.7 µM with ACHN renal; 3.28 µM in the experiment with BT-549 breast; 11.2 µM with CAKI-1 renal; 12.3 µM in the experiment on COLO 205 colon; 35.3 µM in the experiment with EKVX NSCLC; 9.93 µM with HCT-15 colon. Moreover, the TGI was found to be 21.3 µM in the experiment with HOP-92 NSCLC; 28.7 µM with HS 578T breast; 20.7 µM with MDA-MB-435; 6.77 µM in the experiment on NCI-H226 lung; 19 µM in the experiment with NCI-H460 lung; 8.19 µM in the experiment with NCI/ADR-RES ovarian. In addition, the TGI with RXF 393 renal is 8.52 µM; in the experiment on SF-268 CNS, 14.2 µM; with SK-MEL-28 melanoma, 24.9 µM; in the experiment with SNB-19 CNS it was 12 µM; in the experiment with SW-620 colon, 5.68 µM; in the experiment with TK-10 renal, 27 µM.
Turning to `COC(=O)NCCc1[nH]nc2c1C(=O)C=C(Nc1ccccc1OC)C2=O`, the TGI is > 100 µM in the experiment with ACHN renal; > 100 µM in the experiment on BT-549 breast; 94.6 µM with CAKI-1 renal; 88.9 µM in the experiment with CCRF-CEM leukemia; 61.6 µM in the experiment with COLO 205 colon; > 100 µM in the experiment on EKVX NSCLC. The TGI in the experiment on HCT-15 colon was > 100 µM; with HOP-92 NSCLC, > 100 µM; in the experiment with HS 578T breast, 99.7 µM; with K-562 leukemia, > 100 µM; with MDA-MB-435 it was 30.8 µM; in the experiment with NCI-H460 lung, > 100 µM. The TGI in the experiment with NCI/ADR-RES ovarian was 52.1 µM; with RXF 393 renal, > 100 µM; in the experiment with SF-268 CNS it was > 100 µM; in the experiment on SK-MEL-28 melanoma it was 95.9 µM; in the experiment with SNB-19 CNS, > 100 µM; with SW-620 colon, 47.8 µM. For the same molecule, the TGI in the experiment with TK-10 renal was > 100 µM.
